Where a name gives a salt, the structure may show the parent alone.
Legend:
Leaf Hopper = test: Insecticidal activity, leaf hopper; type: in vivo; conditions: application rate of 5 lb./acre
Ant = test: Insecticidal activity, ant feeding; type: in vivo; conditions: application rate of 5 lb./acre
Bollworm = test: Insecticidal activity, bollworm; type: in vivo; conditions: application rate of 5 lb./acre
Mite = test: Insecticidal activity, mite; type: in vivo; conditions: application rate of 5 lb./acre
Bean aphid = test: Insecticidal activity, bean aphid; type: in vivo; conditions: application rate of 5 lb./acre
[1] = target: T1, Leucine aminopeptidase (Microsomal) (LAPM) (Sus scrofa, UniProt P15145); test: IC50 with leucine aminopeptidase (microsomal); type: biochemical, hog; conditions: 72 hours at 0°-5°, pH 7.2, substrate (L)-leucine-β-napthylamide, fluorescence
T1 construct: (LAPM) from hog kidney; from tissue; host or cells: hog kidney
T1 sequence (P15145 1-963): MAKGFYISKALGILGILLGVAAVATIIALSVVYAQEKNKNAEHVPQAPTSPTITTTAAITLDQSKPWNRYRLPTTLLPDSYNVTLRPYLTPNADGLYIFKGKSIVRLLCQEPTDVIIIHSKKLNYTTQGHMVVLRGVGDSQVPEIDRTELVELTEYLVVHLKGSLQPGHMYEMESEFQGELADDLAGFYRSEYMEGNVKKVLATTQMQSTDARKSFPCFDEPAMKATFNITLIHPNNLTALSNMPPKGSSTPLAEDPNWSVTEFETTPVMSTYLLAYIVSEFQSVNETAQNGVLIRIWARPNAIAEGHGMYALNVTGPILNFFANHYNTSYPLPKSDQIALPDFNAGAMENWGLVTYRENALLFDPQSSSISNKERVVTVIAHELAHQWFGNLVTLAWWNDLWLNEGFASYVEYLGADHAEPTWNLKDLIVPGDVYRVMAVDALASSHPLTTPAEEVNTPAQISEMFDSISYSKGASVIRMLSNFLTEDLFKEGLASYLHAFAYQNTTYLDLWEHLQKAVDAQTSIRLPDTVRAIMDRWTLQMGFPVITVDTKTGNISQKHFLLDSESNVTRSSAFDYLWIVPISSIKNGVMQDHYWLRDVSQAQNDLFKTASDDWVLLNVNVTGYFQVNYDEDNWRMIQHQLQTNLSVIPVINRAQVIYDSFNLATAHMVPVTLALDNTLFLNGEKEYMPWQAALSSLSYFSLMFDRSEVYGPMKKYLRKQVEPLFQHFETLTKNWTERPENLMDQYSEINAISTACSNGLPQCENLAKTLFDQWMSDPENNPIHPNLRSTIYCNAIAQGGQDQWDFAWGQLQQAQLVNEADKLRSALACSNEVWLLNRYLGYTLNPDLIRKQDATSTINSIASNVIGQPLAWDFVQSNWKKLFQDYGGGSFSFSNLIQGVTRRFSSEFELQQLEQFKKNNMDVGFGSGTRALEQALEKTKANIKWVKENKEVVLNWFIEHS
Excerpt: (§1) An IC50 value represents an approximation of the concentration of enzyme inhibitor required to inhibit enzyme activity by fifty percent. These values represent acceptable approximations of the inhibition constant KI, the dissociation constant in the following equation: [formula] where [E] is the concentration of enzyme, [I] is the concentration of inhibitor and [EI] is the concentration of enzyme/inhibitor complex.
(§2) Determination of IC50 values for LAPC and LAPM was accomplished by spectrophotometrically or fluorometrically following the rate of formation of p-nitroaniline or β-naphthylamine from hydrolysis of (L)-leucine-p-nitroanilide or (L)-leucine-β-napthylamide, respectively, in the presence of active enzyme. IC50 values for HEDA were determined by monitoring, via high pressure liquid chromatography, the formation of destyr-enkephalin from leu-enkephalin.
Assay mixtures were prepared containing 0.613 μg LAPM, 10 μg/mL bovine serum albumin (BSA). 0.1M phosphate buffer, pH 7.2, in a total volume of 2.7 mL. Measured amounts of compounds 5 to be tested for inhibitory activity were added in additional 0.1M phosphate buffer to a total volume of 3 mL. After 72 hours at 0°-5°, 1 mL of the enzyme/inhibitor mixture was treated with 4 μL of 0.2M (L)-leucine-β-napthylamide in dimethylsulfoxide, and the rate of increase of fluorescence at 410 nm, while exciting at 310 nm. was measured. Control experiments were performed identically, except no inhibitor was present. The concentration of the selected compound 5 observed to decrease reaction rates by one-half was used to determine the value of IC50 for each compound. This was accomplished by subtracting one-half the concentration of enzyme present in the sample mixtures (1.6×10^-9 M) from the inhibitor concentration observed to decrease reaction rates by one-half.

[2] = target: Human enkephalin-degrading aminopeptidase (HEDA); test: IC50 with human enkephalin-degrading aminopeptidase; type: biochemical; conditions: incubated at 37° for 2 hours, pH 7.8, substrate leu-enkephalin, HPLC
Excerpt: An IC50 value represents an approximation of the concentration of enzyme inhibitor required to inhibit enzyme activity by fifty percent. These values represent acceptable approximations of the inhibition constant KI, the dissociation constant in the following equation: [formula] where [E] is the concentration of enzyme, [I] is the concentration of inhibitor and [EI] is the concentration of enzyme/inhibitor complex. Determination of IC50 values for LAPC and LAPM was accomplished by spectrophotometrically or fluorometrically following the rate of formation of p-nitroaniline or β-naphthylamine from hydrolysis of (L)-leucine-p-nitroanilide or (L)-leucine-β-napthylamide, respectively, in the presence of active enzyme. IC50 values for HEDA were determined by monitoring, via high pressure liquid chromatography, the formation of […]-enkephalin from leu-enkephalin. […] At this point, 15 μL of a 10 mM solution of leu-enkephalin, acetic acid salt in 2 mM phosphate buffer, pH 7.8, were added to each sample mixture. […] Detection was by ultraviolet absorption at 215 nm. A ratio of a peak corresponding to ([…])-enkephalin at about […] and a peak corresponding to leu-enkephalin at about 3.9 min. indicated reaction progress. The rate of increase of this ratio corresponded to the rate of enzyme hydrolysis of substrate leu-enkephalin.

[3] = target: T2, Leucine aminopeptidase (cytosolic) (LAPC) (Sus scrofa, UniProt P28839); test: IC50 with leucine aminopeptidase (cytosolic); type: biochemical, hog; conditions: 112 hours at 0°-5°, pH 8.5, substrate (L)-leucine-p-nitroanilide, absorption at 405 nm
T2 construct: (LAPC) from hog kidney; from tissue; host or cells: hog kidney
T2 sequence (P28839 33-519 limits assumed): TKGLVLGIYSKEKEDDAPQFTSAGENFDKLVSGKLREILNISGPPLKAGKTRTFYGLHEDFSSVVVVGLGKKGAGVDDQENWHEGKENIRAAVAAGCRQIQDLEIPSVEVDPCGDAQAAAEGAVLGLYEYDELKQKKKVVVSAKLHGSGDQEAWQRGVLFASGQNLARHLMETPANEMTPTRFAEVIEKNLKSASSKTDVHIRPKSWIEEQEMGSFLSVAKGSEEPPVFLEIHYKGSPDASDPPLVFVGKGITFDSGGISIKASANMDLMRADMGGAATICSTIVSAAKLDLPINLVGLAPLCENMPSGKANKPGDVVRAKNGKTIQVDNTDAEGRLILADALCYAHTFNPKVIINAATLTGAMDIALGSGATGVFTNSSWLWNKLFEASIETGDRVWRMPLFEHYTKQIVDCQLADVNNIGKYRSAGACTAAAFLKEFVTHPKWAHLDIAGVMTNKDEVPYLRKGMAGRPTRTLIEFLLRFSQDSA
Excerpt: as §1, §2
Assay mixtures were prepared, containing 10×10^-8 M LAPC, 1 mg/mL BSA, 0.025M MgCl2 and 0.01M tris-HCl buffer, pH 8.5, in a total volume of 2.7 mL. Varying amounts of selected compounds 5, dissolved in the same buffer, were added to make a final volume of 3.0 mL. After storage for 112 hours at 0°-5°, 1 mL of this mixture was treated with 25 μL of a 0.1M (L)-leucine-p-nitroanilide in dimethylsulfoxide, and the rate of increase of absorption at 405 nm was measured. IC50 values were calculated as in Example 26, above.

α-chymotrypsin = α-chymotrypsin (Bos taurus, UniProt P00766); conditions: Matteson et al., J. Am. Chem. Soc. 103:5241 (1981); cited from earlier work
subtilisin = conditions: Philipp, et al., FEBS Letters 133:36 (1971); cited from earlier work

| SMILES | IC50 [1] | IC50 [2] | IC50 [3] | also measured |
| --- | --- | --- | --- | --- |
| CC(C)CB1OC(C)(C)C(C)(C)O1 [2 (R=CH3 CH(CH3)2), 4,4,5,5-tetramethyl-2-(2-methylpropyl)-1,3,2-dioxaborolane] | – | – | – | Leaf Hopper, % control (Leaf Hopper): 50% |
| CB1OC(C)(C)C(C)(C)O1 [2 (R=CH3), 2,4,4,5,5-pentamethyl-1,3,2-dioxaborolane] | – | – | – | Ant Feeding, % control (Ant): 31% |
| CCC(C)B1OC(C)(C)C(C)(C)O1 (stereo not drawn) [2 (R=CH(CH3)C2 H5), 2-(1-methylpropyl)-4,4,5,5-tetramethyl-1,3,2-dioxaborolane] | – | – | – | Bollworm, % control (Bollworm): 20% |
| CC1(C)OB(Cc2ccccc2)OC1(C)C [2 (R=CHC6 H5), 4,4,5,5-tetramethyl-2-(phenylmethyl)-1,3,2-dioxaborolane] | – | – | – | Mite, % control (Mite): 70% |
| CC(C)CC(Cl)B1OC(C)(C)C(C)(C)O1 (stereo not drawn) [3 (R=CH3 CH(CH3)2), 2-(1-chloro-3-methylbutyl)-4,4,5,5-tetramethyl-1,3,2-dioxaborolane] | – | – | – | Mite, % control (Mite): 64% |
| CCC(C)C(Cl)B1OC(C)(C)C(C)(C)O1 (stereo not drawn) [3 (R=CH(CH3)C2 H5), 2-(1-chloro-2-methylbutyl)-4,4,5,5-tetramethyl-1,3,2-dioxaborolane] | – | – | – | Bean aphid, % control (Bean aphid): 39% |
| CC1(C)OB(C(Cl)Cc2ccccc2)OC1(C)C (stereo not drawn) [3 (R=CHC6 H5), 2-(1-chloro-2-phenylethyl)-4,4,5,5-tetramethyl-1,3,2-dioxaborolane] | – | – | – | Bean aphid, % control (Bean aphid): 48% |
| CC1(C)OB(C(N)Cc2ccccc2)OC1(C)C (stereo not drawn) [5 (R=CH2 C6 H5), 4,4,5,5-tetramethyl-α-(phenylmethyl)-1,3,2-dioxoborolane-2-methanamine, trifluoroacetic acid salt] | 0.2 nM | 5.2 nM | 10 nM | – |
| CC(C)CC(N)B1OC(C)(C)C(C)(C)O1 (stereo not drawn) [5 (R=CH2 CH(CH3)2), 3-methyl-1-(4,4,5,5-tetramethyl-1,3,2-dioxaborolane-2-yl)-1-butamine, trifluoroacetic acid salt] | 1.2 nM | 7.4 nM | 150 nM | – |
| CC(N)B1OC(C)(C)C(C)(C)O1 (stereo not drawn) [5 (R=CH3), α,4,4,5,5,pentamethyl-1,3,2-dioxoborolane-2-methanamine, trifluoroacetic acid salt] | 6.4 nM | 71 nM | 30000 nM | – |
| CC(C)C(N)B1OC(C)(C)C(C)(C)O1 (stereo not drawn) [5 (R=CH(CH3)2), 4,4,5,5-tetramethyl-α-(1-methylethyl)-1,3,2-dioxaborolane-2-methanamine, trifluoroacetic acid salt] | 2.15 nM | 42 nM | 70 nM | – |
| CCC(C)C(N)B1OC(C)(C)C(C)(C)O1 (stereo not drawn) [5 (R=CH(CH3)C2 H5), 4,4,5,5-tetramethyl-α-(1-methylpropyl)-1,3,2-dioxaborolane-2-methanamine, trifluoroacetic acid salt] | 2.2 nM | 41 nM | 30 nM | – |
| CC(=O)NC(Cc1ccccc1)B(O)O (stereo not drawn) [IV] | – | – | – | inhibition of α-chymotrypsin (α-chymotrypsin): observed to inhibit; inhibition of subtilisin (subtilisin): inhibited |
